According to patent publication US20260317309A1, “N-HETEROCYLIC GPCR RECEPTOR AGONISTS, PHARMACEUTICAL COMPOSITIONS COMPRISING THE SAME, AND METHODS FOR THEIR USE” (Carmot Therapeutics, Inc., priority 2022, published 2026):

These molecules were tested against T1, human GLP-1 receptor (Homo sapiens, UniProt P43220) (assay: GLP-1R cAMP assay (cAMP accumulation in CHO cells stably overexpressing the human GLP-1 receptor, HitHunter kit)). Settings: CHO cells stably overexpressing human GLP-1R, 30 min, 20-point dose response in triplicate.
T1 construct: expressed in transfected cells
Type: cell-based
Method: CAMP accumulation was measured in Chinese hamster ovary (CHO) cells (10,000 cells/well) stably overexpressing the human GLP-1 receptor using the HitHunter CAMP Assay for Small Molecules Kit (Eurofins). Briefly, cells were grown in Ham's F12 Nutrient Mix with 10% FBS, and lifted with Cell Dissociation Buffer, Enzyme free, PBS based (ThermoFisher). Cells were pelleted, and resuspended in Hank's buffered saline solution with 10 mM HEPES, and 625 μM 3-isobutyl-1-methylxanthine. The anti-cAMP antibody reagent was then added to cells at a 1:2 ratio and 5 μL of mixture was seeded in 384-well small volume white assay plates, at 10,000 cells/well. Cells were then treated with 50 nL compound using an ECHO 550 acoustic dispenser (Labcyte) in a 20-point dose response format in triplicate for 30 min. Cells were then lysed, and detection reagents added according to the manufacturer's protocol. After overnight incubation, luminescence was measured using a Perkin Elmer Envision plate reader. Dose response curves were analyzed using GraphPad Prism 9.0.
In the Table, EC50 values are designated as follows: • A: 0 nM<EC50<0.1 nM; • B: 0.1 nM≤EC50<1.0 nM; • C: 1.0 nM≤EC50<10.0 nM; • D: 10.0 nM≤EC50<100 nM; • E: 100 nM≤EC50<500 nM; and • F: ≥500 nM

T1 sequence (P43220 24-463): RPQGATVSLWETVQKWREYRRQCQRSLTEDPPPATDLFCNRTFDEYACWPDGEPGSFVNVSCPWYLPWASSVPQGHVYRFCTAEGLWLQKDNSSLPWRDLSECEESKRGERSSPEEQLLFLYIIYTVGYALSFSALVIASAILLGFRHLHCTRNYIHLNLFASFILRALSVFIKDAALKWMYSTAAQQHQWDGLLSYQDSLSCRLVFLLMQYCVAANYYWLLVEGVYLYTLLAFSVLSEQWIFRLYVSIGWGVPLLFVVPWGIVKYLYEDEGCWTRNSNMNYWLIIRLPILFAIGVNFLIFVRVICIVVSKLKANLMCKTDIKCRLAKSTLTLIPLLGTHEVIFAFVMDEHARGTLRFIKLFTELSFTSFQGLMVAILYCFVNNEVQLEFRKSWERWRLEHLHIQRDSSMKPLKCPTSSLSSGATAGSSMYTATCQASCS

| SMILES | EC50 [nM] |
| --- | --- |
| CC(c1nc2ccc(C(=O)O)cc2n1C[C@@H](O)CCO)N1CC[C@H](Oc2ccnc(COc3ccc(F)cc3F)n2)C[C@@H]1C (mixture of isomers) [Compound 569, 2-{1-[(2S,4S)-4-({2-[(2,4-difluorophenoxy)methyl]pyrimidin-4-yl}oxy)-2-methylpiperidin-1-yl]ethyl}-1-[(2S)-2,4-dihydroxybutyl]-1H-1,3-benzodiazole-6-carboxylic acid] | ≥ 500 |
| N#Cc1ccc(OCc2nccc(O[C@H]3CCN(Cc4nc5ccc(C(=O)O)cc5n4C[C@@H]4CCO4)C[C@H]3F)n2)c(F)c1 [Compound 552, 2-{[(3R,4S)-4-({2-[(4-cyano-2-fluorophenoxy)methyl]pyrimidin-4-yl}oxy)-3-fluoropiperidin-1-yl]methyl}-1-{[(2S)-oxetan-2-yl]methyl}-1H-1,3-benzodiazole-6-carboxylic acid] | 0.1 to 1 |
| N#Cc1ccc(OCc2nccc(O[C@H]3CCN(Cc4nc5ccc(C(=O)O)cc5n4C[C@@H]4CCO4)C[C@@H]3F)n2)c(F)c1 [Compound 553, 2-{[(3S,4S)-4-({2-[(4-cyano-2-fluorophenoxy)methyl]pyrimidin-4-yl}oxy)-3-fluoropiperidin-1-yl]methyl}-1-{[(2S)-oxetan-2-yl]methyl}-1H-1,3-benzodiazole-6-carboxylic acid] | 0.1 to 1 |
| C[C@H]1C[C@@H](Oc2ccnc(COc3ncc(Cl)cc3F)n2)CCN1Cc1nc2ccc(C(=O)O)cc2n1C[C@@H]1CCO1 [Compound 554, 2-(((2S,4S)-4-((2-(((5-Chloro-3-fluoropyridin-2-yl)oxy)methyl)pyrimidin-4-yl)oxy)-2-methylpiperidin-1-yl)methyl)-1-(((S)-oxetan-2-yl)methyl)-1H-benzo[d]imidazole-6-carboxylic acid] | < 0.1 |
| O=C(O)c1ccc2nc(CN3CC[C@H](Oc4ccnc(COc5ccc(Cl)cc5F)c4)C[C@@H]3CF)n(C[C@@H]3CCO3)c2c1 [Compound 555, 2-(((2R,4S)-4-((2-((4-Chloro-2-fluorophenoxy)methyl)pyridin-4-yl)oxy)-2-(fluoromethyl)piperidin-1-yl)methyl)-1-(((S)-oxetan-2-yl)methyl)-1H-benzo[d]imidazole-6-carboxylic acid] | < 0.1 |
| C[C@H]1C[C@@H](Oc2ccnc(COc3ccc(F)cc3C#N)n2)CCN1Cc1nc2ncc(C(=O)O)cc2n1C[C@@H]1CCO1 [Compound 556, 2-(((2S,4S)-4-((2-((2-Cyano-4-fluorophenoxy)methyl)pyrimidin-4-yl)oxy)-2-methylpiperidin-1-yl)methyl)-1-(((S)-oxetan-2-yl)methyl)-1H-imidazo[4,5-b]pyridine-6-carboxylic acid] | 0.1 to 1 |
| N#CC[C@H]1C[C@@H](Oc2ccnc(COc3ccc(F)cc3Cl)n2)CCN1Cc1nc2ccc(C(=O)O)cc2n1C[C@@H]1CCO1 [Compound 557, 2-{[(2S,4S)-4-({2-[(2-Chloro-4-fluorophenoxy)methyl]pyrimidin-4-yl}oxy)-2-(cyanomethyl)piperidin-1-yl]methyl}-1-{[(2S)-oxetan-2-yl]methyl}-1H-1,3-benzodiazole-6-carboxylic acid] | 1 to 10 |
| C[C@H]1C[C@@H](Oc2ccnc(COc3ccc(F)cc3C#N)n2)CCN1Cc1nc2ccc(C(=O)O)cc2n1C[C@H]1CCOC1 [Compound 558, 2-{[(2S,4S)-4-({2-[(2-cyano-4-fluorophenoxy)methyl]pyrimidin-4-yl}oxy)-2-methylpiperidin-1-yl]methyl}-1-{[(3R)-oxolan-3-yl]methyl}-1H-1,3-benzodiazole-6-carboxylic acid] | 0.1 to 1 |
| CC(c1nc2ccc(C(=O)O)cc2n1C[C@@H]1CCO1)N1CCC(Oc2ccnc(COc3ccc(F)cc3F)n2)CC1 (stereo partly drawn) [Compound 565, 2-(1-(4-((2-((2,4-Difluorophenoxy)methyl)pyrimidin-4-yl)oxy)piperidin-1-yl)ethyl)-1-(((S)-oxetan-2-yl)methyl)-1H-benzo[d]imidazole-6-carboxylic acid] | 1 to 10 |
| C[C@H]1C[C@@H](Oc2ccnc(COc3ccc(C#N)cn3)n2)CCN1Cc1nc2ccc(C(=O)O)cc2n1C[C@@H]1CCO1 [Compound 567, 2-{[(2S,4S)-4-[(2-{[(5-Cyanopyridin-2-yl)oxy]methyl}pyrimidin-4-yl)oxy]-2-methylpiperidin-1-yl]methyl}-1-{[(2S)-oxetan-2-yl]methyl}-1H-1,3-benzodiazole-6-carboxylic acid] | 0.1 to 1 |
| N#Cc1ccc(OCc2nccc(OC3CCC4(CC3)CC4c3nc4ccc(C(=O)O)cc4n3C[C@@H]3CCO3)n2)c(F)c1 (stereo partly drawn) [Compound 571, 2-(6-((2-((4-Cyano-2-fluorophenoxy)methyl)pyrimidin-4-yl)oxy)spiro[2.5]octan-1-yl)-1-(((S)-oxetan-2-yl)methyl)-1H-benzo[d]imidazole-6-carboxylic acid] | 10 to 100 |

Second part, the molecule after the results:

| EC50 [nM] | SMILES |
| --- | --- |
| 0.1 to 1 | CC(c1nc2ccc(C(=O)O)cc2n1C[C@@H]1CCO1)N1CC[C@H](Oc2ccnc(COc3ccc(F)cc3F)n2)C[C@@H]1C (mixture of isomers) [Compound 568, 2-{1-[(2S,4S)-4-({2-[(2,4-difluorophenoxy)methyl]pyrimidin-4-yl}oxy)-2-methylpiperidin-1-yl]ethyl}-1-{[(2S)-oxetan-2-yl]methyl}-1H-1,3-benzodiazole-6-carboxylic acid] |
| 0.1 to 1 | C[C@H]1C[C@@H](Oc2ccnc(COc3ccc(F)cc3F)n2)CCN1Cc1nc2ccc(C(=O)NO)cc2n1C[C@@H]1CCO1 [Compound 559, 2-(((2S,4S)-4-((2-((2,4-Difluorophenoxy)methyl)pyrimidin-4-yl)oxy)-2-methylpiperidin-1-yl)methyl)-N-hydroxy-1-(((S)-oxetan-2-yl)methyl)-1H-benzo[d]imidazole-6-carboxamide] |
| 0.1 to 1 | C[C@H]1C[C@@H](Oc2ccnc(COc3ccc(F)cc3C#N)n2)CCN1Cc1nc2ccc(C(=O)NO)cc2n1C[C@@H]1CCO1 [Compound 560, 2-{[(2S,4S)-4-({2-[(2-Cyano-4-fluorophenoxy)methyl]pyrimidin-4-yl}oxy)-2-methylpiperidin-1-yl]methyl}-N-hydroxy-1-{[(2S)-oxetan-2-yl]methyl}-1H-1,3-benzodiazole-6-carboxamide] |
| 0.1 to 1 | C[C@H]1C[C@@H](Oc2ccnc(COc3ccc(F)cc3C#N)n2)CCN1Cc1nc2ccc(C(=O)O)cc2n1C[C@H]1CCO1 [Compound 561, 2-{[(2S,4S)-4-({2-[(2-cyano-4-fluorophenoxy)methyl]pyrimidin-4-yl}oxy)-2-methylpiperidin-1-yl]methyl}-1-{[(2R)-oxetan-2-yl]methyl}-1H-1,3-benzodiazole-6-carboxylic acid] |
| 0.1 to 1 | C[C@H]1C[C@@H](Oc2ccnc(COc3ccc(F)cc3F)n2)CCN1Cc1nc2ccc(C(=O)O)cc2n1C[C@H]1CCO1 [Compound 562, 2-{[(2S,4S)-4-({2-[(2,4-difluorophenoxy)methyl]pyrimi-din-4-yl}oxy)-2-methylpiperi-din-1-yl]methyl}-1-{[(2R)-oxe-tan-2-yl]methyl}-1H-1,3-benzo-diazole-6-carboxylic acid] |
| 0.1 to 1 | C[C@H]1C[C@@H](Oc2ccnc(COc3ccc(F)cc3F)n2)CCN1Cc1nc2ccc(C(=O)NS(C)(=O)=O)cc2n1C[C@@H]1CCO1 [Compound 563, 2-(((2S,4S)-4-((2-((2,4-Difluorophenoxy)methyl)pyrimidin-4-yl)oxy)-2-methylpiperidin-1-yl)methyl)-N-(methylsulfonyl)-1-(((S)-oxetan-2-yl)methyl)-1H-benzo[d]imidazole-6-carboxamide] |
| 0.1 to 1 | C[C@H]1C[C@@H](Oc2ccnc(COc3ccc(F)cc3F)n2)CCN1Cc1nc2ccc(C(=O)NS(=O)(=O)C3CC3)cc2n1C[C@@H]1CCO1 [Compound 564, N-(Cyclopropanesulfonyl)-2-{[(2S,4S)-4-({2-[(2,4-difluorophenoxy)methyl]pyrimidin-4-yl}oxy)-2-methylpiperidin-1-yl]methyl}-1-{[(2S)-oxetan-2-yl]methyl}-1H-1,3-benzodiazole-6-carboxamide] |
| 0.1 to 1 | C[C@H]1C[C@@H](Oc2ccnc(COc3ncc(F)cc3F)n2)CCN1Cc1nc2ccc(C(=O)O)cc2n1C[C@@H]1CCO1 [Compound 566, 2-{[(2S,4S)-4-[(2-{[(3,5-Difluoropyridin-2-yl)oxy]methyl}pyrimidin-4-yl)oxy]-2-methylpiperidin-1-yl]methyl}-1-{[(2S)-oxetan-2-yl]methyl}-1H-1,3-benzodiazole-6-carboxylic acid] |
| 0.1 to 1 | C[C@H]1C[C@@H](Oc2ccnc(COc3ccc(F)cc3F)n2)CCN1Cc1nc2ccc(C(=O)O)cc2n1CC12CC(CO1)C2 [Compound 570, 2-{[(2S,4S)-4-({2-[(2,4-Difluorophenoxy)methyl]pyrimidin-4-yl}oxy)-2-methylpiperidin-1-yl]methyl}-1-({2-oxabicyclo[2.1.1]hexan-1-yl}methyl)-1H-1,3-benzodiazole-6-carboxylic acid] |
| 0.1 to 1 | C[C@H]1C[C@@H](Oc2ccnc(COc3ccc(F)cc3F)n2)CCN1Cc1nc2cc(F)c(C(=O)O)cc2n1C[C@@H]1CCO1 [Compound 572, 2-{[(2S,4S)-4-({2-[(2,4-di-fluorophenoxy)methyl]pyrimidin-4-yl}oxy)-2-methylpiperidin-1-yl]methyl}-5-fluoro-1-{[(2S)-oxetan-2-yl]methyl}-1H-1,3-benzodiazole-6-carboxylic acid] |
